Laboratory results as given in PMC10403511, “DNA-encoded chemical libraries yield non-covalent and non-peptidic SARS-CoV-2 main protease inhibitors” (Communications Chemistry, 2023).
Entries after “also recorded” stand apart in the source; their conditions may differ. Where two headings read alike, the source gives them in different places.

Target: T1, SARS-CoV-2 M^pro (Severe acute respiratory syndrome coronavirus 2, UniProt P0DTD1)
T1 construct: the gene for M^pro (ORF1ab residues 3264 to 3569, GenBank code: MN908947.3); Sumo fusion with M^pro cleavage site (SAVLQ↓SGFRK) (N, cleaved yes); 6xHis-tag behind PreScission site (SGVTFQ↓GP) (C); made in house; host or cells: E. coli BL21(DE3)
Assay: M^pro enzyme inhibition assay, proteolytic cleavage of fluorescent peptide reporter, Ki by Morrison equation
Type: biochemical
Text: Hydrolysis of the fluorescent peptide was monitored at an emission wavelength of 460 nm with an excitation wavelength of 360 nm using a TECAN M200 plate reader. Initial hydrolysis rates of fluorescent peptide were plotted as a function of compound concentrations, and Ki values were obtained by fitting the data into the Morrison equation[32] with SE from triplicates.
inhibitors. […] The remaining activities (red dots) of Mpro towards fluorescent
peptide we re plotted as a function of compound concentrations and Ki values wa s calculated by fitting the da ta int o Morrison equation wit h standard error f romS6 […]

[1] = Fig. 2, Suppl. Fig. 1, construct not given, Inactive: inhibited M^pro activity by less than 90% with 25 μM

## CNC(=O)CCCn1c(-c2ccc(N)nc2)nc2cccc(C(=O)N[C@@H](C)c3ccc4ccccc4c3)c21 [CDD-1926]
  Ki: inactive or exhibit greatly decreased potency
  Mpro Ki: Inactive
  Mpro-His Ki: Inactive

## CNC(=O)CCCn1c(-c2cccc3ccccc23)nc2cccc(C(=O)N[C@@H](C)c3ccc4ccccc4c3)c21 [CDD-1885]
  Mpro Ki: Inactive
  Mpro-His Ki: Inactive

## CCC[C@H](NC(=O)c1cccc2nc(-c3cncc4ccccc34)n(C(C)C)c12)c1ccc(C(F)(F)F)cc1 [CDD-1804]
25 nM Mpro with authentic termini (no His-tag), standard error from triplicates, Inactive: less than 50% inhibition with 25 µM compound
  Mpro Ki: Inactive
25 nM Mpro-6-His, standard error from triplicates, Inactive: less than 50% inhibition with 25 µM compound in initial screening
  Mpro-His Ki: Inactive
[1]
  Ki: completely abolished; also recorded: greatly reduces potency

## CCC[C@H](NC(=O)c1cccc2nc(-c3cncc4ccccc34)n(C3CCC3)c12)c1ccc(C(F)(F)F)cc1 [CDD-1806]
[1]
  Ki: greatly reduces potency
From Ki values
  decrease of activity compared to CDD-1733: more than 14 fold

## CNC(=O)CCCn1c(-c2cnccc2C)nc2cccc(C(=O)N[C@@H](C)c3ccc4ccccc4c3)c21 [CDD-1924]
read-out: Mpro Ki
  Ki: 426 ± 47 nM

## CNC(=O)CCCn1c(-c2ccnc3ccccc23)nc2cccc(C(=O)N[C@@H](C)c3ccc4ccccc4c3)c21 [CDD-1906]
  Mpro Ki: Inactive
  Mpro-His Ki: Inactive

## CNC(=O)[C@H]1C[C@H](n2c(-c3cncc4ccccc34)nc3cccc(C(=O)N[C@@H](C)c4ccccc4)c32)C1 [CDD-1841]
read-out: Ki
  Ki: 571 nM
read-out: Mpro Ki
  Ki: 565 ± 55 nM

## CCC[C@H](NC(=O)c1cccc2nc(-c3cncc4ccccc34)n(CCCC(=O)NC)c12)c1ccc(C(F)(F)F)cc1 [CDD-1830]
25 nM Mpro with authentic termini (no His-tag), standard error from triplicates, Inactive: less than 50% inhibition with 25 µM compound, read-out: Mpro Ki
  Ki: 6 ± 1 nM
25 nM Mpro-6-His, standard error from triplicates, Inactive: less than 50% inhibition with 25 µM compound in initial screening, read-out: Mpro-His Ki
  Ki: 6 ± 1 nM
Fig. 2, Suppl. Fig. 1, construct not given, Inactive: inhibited M^pro activity by less than 90% with 25 μM, read-out: Ki
  Ki: 6 nM

## CNC(=O)CCCn1c(-c2ccc3cnccc3c2)nc2cccc(C(=O)N[C@@H](C)c3ccc4ccccc4c3)c21 [CDD-1884]
  Ki: inactive or exhibit greatly decreased potency
  Mpro Ki: Inactive
  Mpro-His Ki: Inactive
